From US4311699A, “Aminoacid derivatives of cephalosporin compounds” (priority 1980, dated 1982) come the findings set out here.

What all share (experiment): in vitro antibacterial activity, minimal inhibitory concentration
What all share (type): cell-based

One assay relates to E. coli Vogel. The following applies: for MIC: Escherichia coli. An excerpt: (§1) The compounds of the invention are new chemical compounds that are used as pharmacological agents and especially as broad spectrum antibacterial agents. They are active in vitro against strains of both gram-positive and gram-negative bacteria.
(§2) Minimal Inhibitory Concentration (μg/ml)

Another assay relates to Entero. cloacae. The note with it: for MIC: Enterobacter cloacae.
Excerpt: as §1, §2

The subject of another assay is Prot. vulg.
Excerpt: as §1, §2

Another assay concerns Staph. aureus S18733. The note with it: for MIC: Staphylococcus aureus.
Excerpt: as §1, §2

In another assay the test system is Pseudomonas #28. The following applies: Pseudomonas #28, in vitro; read-out: Minimal Inhibitory Concentration.
Excerpt: as §1, §2

A further assay has as its system Pseudomonas UI 18. The following applies: UI18; Pseudomonas UI 18, in vitro.
Excerpt: as §1, §2

Another assay concerns Staph. aureus UC-76. The note with it: Staph. aureus UC-76, in vitro; for MIC: Staphylococcus aureus, UC76.
Excerpt: as §1, §2

The next assay concerns Pseudomonas BRK 12-4-4. The note with it: Pseudomonas BRK 12-4-4, in vitro; for MIC: BRK1244.
Excerpt: as §1, §2

The test system of a further assay is Serr. marces.
Excerpt: as §1, §2

In the next assay the test system is E. coli Brig. The note with it: for MIC: Escherichia coli.
Excerpt: as §1, §2

The subject of another assay is Strep. fec.
Excerpt: as §1, §2

The next assay concerns Klebs. pneu.
Excerpt: as §1, §2

Structures are written as SMILES. Converted amounts (≈) assume the structure as drawn. Bounds are passed on as bounds.

`CC(=O)NC(C)C(=O)Nc1ccc(-c2ncc(C(=O)N[C@@H](C(=O)NC3C(=O)N4C(C(=O)O)=C(CSc5nnnn5CC(=O)O)CSC34)c3ccccc3)c(O)n2)cc1` (mixture of isomers) [Example 35, N-[2-[4-(N-Acetyl-DL-alanylamino)phenyl]-4-hydroxy-5-pyrimidinylcarbonyl]-7-[D-2-phenylacetamido-3-[[(1-carboxymethyl-1H-tetrazol-5-yl)thio]methyl]-3-cephem-4-carboxylic acid]: the MIC against E. coli Vogel amounted to 3.1 µg/mL; against Entero. cloacae, 6.3 µg/mL; against Prot. vulg., 3.1 µg/mL; in the assay with Staph. aureus S18733 it was 25 µg/mL; in the assay with Pseudomonas #28 it was 6.3 µg/mL; against Pseudomonas UI 18, 12.5 µg/mL. Further, the MIC against Staph. aureus UC-76 was 12.5 µg/mL; in the assay with Pseudomonas BRK 12-4-4, 12.5 µg/mL; against Serr. marces. it was 50 µg/mL; against E. coli Brig, 6.3 µg/mL; against Strep. fec. it was greater than 50 µg/mL; in the assay on Klebs. pneu., 6.3 µg/mL.

In the case of `CC(=O)NCC(=O)Nc1ccc(-c2ncc(C(=O)N[C@@H](C(=O)NC3C(=O)N4C(C(=O)O)=C(CSc5nnc(C)s5)CSC34)c3ccccc3)c(O)n2)cc1` (stereo partly drawn) [Example 39, N-[2-[4-(N-Acetylglycylamino)phenyl]-4-hydroxy-5-pyrimidinylcarbonyl]-7-[D-2-amino-2-phenylacetamido]-3-[[(5-methyl-1,3,4-thiadiazol-2-yl)thio]methyl]-3-cephem-4-carboxylic acid], the MIC is 1.6 µg/mL (≈ 2.03 µM) against E. coli Vogel; 6.3 µg/mL (≈ 7.98 µM) against Entero. cloacae; 6.3 µg/mL (≈ 7.98 µM) against Prot. vulg.; 3.1 µg/mL (≈ 3.92 µM) in the assay with Staph. aureus S18733; 12.5 µg/mL (≈ 15.8 µM) with Pseudomonas #28; 25 µg/mL (≈ 31.7 µM) in the assay with Pseudomonas UI 18. In addition, the MIC is 0.8 µg/mL (≈ 1.01 µM) against Staph. aureus UC-76; 25 µg/mL (≈ 31.7 µM) in the assay on Pseudomonas BRK 12-4-4; 50 µg/mL (≈ 63.3 µM) against Serr. marces.; 12.5 µg/mL (≈ 15.8 µM) against E. coli Brig; 50 µg/mL (≈ 63.3 µM) with Strep. fec.; 1.6 µg/mL (≈ 2.03 µM) with Klebs. pneu..

Take `CC(=O)N[C@H](C)C(=O)Nc1ccc(-c2ncc(C(=O)N[C@@H](C(=O)NC3C(=O)N4C(C(=O)O)=C(CSc5nnnn5C)CSC34)c3ccc(O)cc3)c(O)n2)cc1` (stereo partly drawn) [Example 31, N-[2[4-(N-Acetyl-D-alanylamino)phenyl]-4-hydroxy-5-pyrimidinyl-carbonyl]-7-[D-2-amino-2-(4-hydroxyphenyl)acetamido]-3-[[(1-methyl-1H-tetrazol-5-yl)thiol]methyl]-3-cephem-4-carboxylic acid]: the MIC in the assay with E. coli Vogel is 1.6 µg/mL (≈ 1.99 µM); against Entero. cloacae it was 6.3 µg/mL (≈ 7.84 µM); in the assay on Prot. vulg. it was 6.3 µg/mL (≈ 7.84 µM); against Staph. aureus S18733 it was 6.3 µg/mL (≈ 7.84 µM); in the assay with Pseudomonas #28, 3.1 µg/mL (≈ 3.86 µM); in the assay on Pseudomonas UI 18, 3.1 µg/mL (≈ 3.86 µM). Also, the MIC in the assay with Staph. aureus UC-76 came to 3.1 µg/mL (≈ 3.86 µM); in the assay on Pseudomonas BRK 12-4-4, 3.1 µg/mL (≈ 3.86 µM); with Serr. marces., 50 µg/mL (≈ 62.2 µM); with E. coli Brig, 6.3 µg/mL (≈ 7.84 µM); in the assay with Strep. fec. it was 25 µg/mL (≈ 31.1 µM); against Klebs. pneu., 1.6 µg/mL (≈ 1.99 µM).

In the case of `CC(=O)N[C@H](C)C(=O)Nc1ccc(-c2ncc(C(=O)N[C@@H](C(=O)NC3C(=O)N4C(C(=O)O)=C(CSc5nnnn5C)CSC34)c3ccccc3)c(O)n2)cc1` (stereo partly drawn) [Example 25, N-[2-[4-(N-Acetyl-D-alanylamino)phenyl]-4-hydroxy-5-pyrimidinylcarbonyl]-7-[D-2-amino-2-phenylacetamido]-3-[[(1-methyl-1H-tetrazol-5-yl)thio]methyl]-3-cephem-4-carboxylic acid], the MIC against E. coli Vogel amounted to 3.1 µg/mL (≈ 3.93 µM); against Entero. cloacae, 6.3 µg/mL (≈ 8 µM); against Prot. vulg., 12.5 µg/mL (≈ 15.9 µM); with Staph. aureus S18733, 6.3 µg/mL (≈ 8 µM); in the assay on Pseudomonas #28, 3.1 µg/mL (≈ 3.93 µM); against Pseudomonas UI 18 it was 6.3 µg/mL (≈ 8 µM). The MIC in the assay on Staph. aureus UC-76 was 1.6 µg/mL (≈ 2.03 µM); against Pseudomonas BRK 12-4-4 it was 6.3 µg/mL (≈ 8 µM); with Serr. marces., 50 µg/mL (≈ 63.5 µM); against E. coli Brig, 6.3 µg/mL (≈ 8 µM); in the assay on Strep. fec. it was greater than 50 µg/mL; in the assay on Klebs. pneu., 3.1 µg/mL (≈ 3.93 µM).

Consider `CC(=O)N[C@@H](C(=O)Nc1ccc(-c2ncc(C(=O)N[C@@H](C(=O)N[C@@H]3C(=O)N4C(C(=O)O)=C(COC(C)=O)CS[C@H]34)c3ccccc3)c(O)n2)cc1)C(C)C` [Example 17, N-[2-[4-(N-Acetyl-D-valylamino)phenyl]-4-hydroxy-5-pyrimidinylcarbonyl]-7-[D-2-amino-2-phenylacetamido]-3-acetoxymethyl-3-cephem-4-carboxylic acid], for which the MIC in the assay with E. coli Vogel came to 6.3 µg/mL (≈ 8.29 µM); with Entero. cloacae, 25 µg/mL (≈ 32.9 µM); in the assay with Prot. vulg. it was 25 µg/mL (≈ 32.9 µM); against Staph. aureus S18733, 6.3 µg/mL (≈ 8.29 µM); in the assay on Pseudomonas #28, 6.3 µg/mL (≈ 8.29 µM); in the assay with Pseudomonas UI 18, 6.3 µg/mL (≈ 8.29 µM). The MIC against Staph. aureus UC-76 was 1.6 µg/mL (≈ 2.11 µM); in the assay with Pseudomonas BRK 12-4-4, 12.5 µg/mL (≈ 16.5 µM); against Serr. marces., greater than 50 µg/mL; with E. coli Brig it was 12.5 µg/mL (≈ 16.5 µM); against Strep. fec., 50 µg/mL (≈ 65.8 µM); against Klebs. pneu. it was 12.5 µg/mL (≈ 16.5 µM).

For `CC(=O)N[C@@H](C)C(=O)Nc1ccc(-c2ncc(C(=O)N[C@@H](C(=O)NC3C(=O)N4C(C(=O)O)=C(CSc5nnnn5C)CSC34)c3ccccc3)c(O)n2)cc1` (stereo partly drawn) [Example 26, N-[2-[4-(N-Acetyl-L-alanylamino)phenyl]-4-hydroxy-5-pyrimidinylcarbonyl]-7-[D-2-amino-2-phenylacetamido]-3-[[(1-methyl-1H-tetrazol-5-yl)thio]methyl]-3-cephem-4-carboxylic acid], the MIC against E. coli Vogel turned out to be 3.1 µg/mL (≈ 3.93 µM); against Entero. cloacae, 12.5 µg/mL (≈ 15.9 µM); against Prot. vulg., 12.5 µg/mL (≈ 15.9 µM); against Staph. aureus S18733 it was 12.5 µg/mL (≈ 15.9 µM); in the assay on Pseudomonas #28, 6.3 µg/mL (≈ 8 µM); in the assay with Pseudomonas UI 18, 12.5 µg/mL (≈ 15.9 µM). Also, the MIC in the assay on Staph. aureus UC-76 came to 6.3 µg/mL (≈ 8 µM); in the assay with Pseudomonas BRK 12-4-4, 12.5 µg/mL (≈ 15.9 µM); against Serr. marces., 50 µg/mL (≈ 63.5 µM); in the assay with E. coli Brig it was 12.5 µg/mL (≈ 15.9 µM); in the assay on Strep. fec., 50 µg/mL (≈ 63.5 µM); in the assay with Klebs. pneu., 6.3 µg/mL (≈ 8 µM).

For `CC(=O)NC(C)(C)C(=O)Nc1ccc(-c2ncc(C(=O)N[C@@H](C(=O)N[C@@H]3C(=O)N4C(C(=O)O)=C(COC(C)=O)CS[C@H]34)c3ccccc3)c(O)n2)cc1` [Example 2, N-[2-[4-(N-Acetyl-alpha-aminoisobutyrylamino)phenyl)-4-hydroxy-5-pyrimidinylcarbonyl]-7-[D-2-amino-2-phenylacetamido]-3-acetoxymethyl-3-cephem-4-carboxylic acid], the MIC against E. coli Vogel stood at 25 µg/mL (≈ 33.5 µM); in the assay on Entero. cloacae, 50 µg/mL (≈ 67 µM); against Prot. vulg. it was 25 µg/mL (≈ 33.5 µM); with Staph. aureus S18733 it was 12.5 µg/mL (≈ 16.8 µM); with Pseudomonas #28, 1.6 µg/mL (≈ 2.15 µM); with Pseudomonas UI 18, 3.1 µg/mL (≈ 4.16 µM). For the same compound, the MIC against Staph. aureus UC-76 is 3.1 µg/mL (≈ 4.16 µM); against Pseudomonas BRK 12-4-4 it was 6.3 µg/mL (≈ 8.45 µM); with Serr. marces., greater than 50 µg/mL; against E. coli Brig, 50 µg/mL (≈ 67 µM); in the assay with Strep. fec., greater than 50 µg/mL; against Klebs. pneu. it was 25 µg/mL (≈ 33.5 µM).

As for `CC(=O)NCCCC(=O)Nc1ccc(-c2ncc(C(=O)N[C@@H](C(=O)NC3C(=O)N4C(C(=O)O)=C(CSc5nnnn5C)CSC34)c3ccccc3)c(O)n2)cc1` (stereo partly drawn) [Example 27, N-[2-[4-(N-Acetyl-aminobutyrylamino)phenyl]-4-hydroxy-5-pyrimidinylcarbonyl]-7-[D-2-amino-2-phenylacetamido]-3-[[(1-methyl-1H-tetrazol-5-yl)thio]methyl]-3-cephem-4-carboxylic acid], the MIC against E. coli Vogel was 1.6 µg/mL (≈ 2 µM); with Entero. cloacae, 6.3 µg/mL (≈ 7.86 µM); against Prot. vulg., 12.5 µg/mL (≈ 15.6 µM); in the assay on Staph. aureus S18733 it was 6.3 µg/mL (≈ 7.86 µM); with Pseudomonas #28, 3.1 µg/mL (≈ 3.87 µM); against Pseudomonas UI 18 it was 6.3 µg/mL (≈ 7.86 µM). Further, the MIC in the assay on Staph. aureus UC-76 turned out to be 1.6 µg/mL (≈ 2 µM); with Pseudomonas BRK 12-4-4, 12.5 µg/mL (≈ 15.6 µM); against Serr. marces., 25 µg/mL (≈ 31.2 µM); with E. coli Brig, 12.5 µg/mL (≈ 15.6 µM); against Strep. fec. it was 25 µg/mL (≈ 31.2 µM); against Klebs. pneu., 1.6 µg/mL (≈ 2 µM).

As to `CC(=O)N1C[C@H](O)C[C@H]1C(=O)Nc1ccc(-c2ncc(C(=O)N[C@@H](C(=O)NC3C(=O)N4C(C(=O)O)=C(CSc5nnnn5CC(=O)O)CS[C@H]34)c3ccccc3)c(O)n2)cc1` (stereo partly drawn) [Example 36, N-[2-[4-(N-Acetyl-L-hydroxyprolylamino)phenyl]-4-hydroxy-5-pyrimidinylcarbonyl]-7-[D-2-amino-2-phenylacetamido]-3-[[(1-carboxymethyl-1H-tetrazol-5-yl)thio]methyl]-3-cephem-4-carboxylic acid], the “Minimal Inhibitory Concentration” value with E. coli Vogel came to 6.3 µg/mL; in the assay on Entero. cloacae, 12.5 µg/mL; with Prot. vulg. it was 6.3 µg/mL; in the assay on Staph. aureus S18733, 25 µg/mL; in the assay on Staph. aureus UC-76, 12.5 µg/mL; with Pseudomonas BRK 12-4-4, 12.5 µg/mL. Besides, the “Minimal Inhibitory Concentration” value with Serr. marces. is 50 µg/mL; in the assay on E. coli Brig, 12.5 µg/mL; with Strep. fec., greater than 50 µg/mL; in the assay on Klebs. pneu., 6.3 µg/mL.

As to `CC(=O)NCC(=O)Nc1ccc(-c2ncc(C(=O)N[C@@H](C(=O)N[C@@H]3C(=O)N4C(C(=O)O)=C(COC(C)=O)CS[C@H]34)c3ccccc3)c(O)n2)cc1` [Example 7, N-[2-[4-(N-Acetylglycylamino)phenyl]-4-hydroxy-5-pyrimidinylcarbonyl]-7-[D-2-amino-2-phenylacetamido]-3-acetoxymethyl-3-cephem-4-carboxylic acid], the MIC in the assay with Entero. cloacae was determined as 25 µg/mL (≈ 34.8 µM); against Pseudomonas UI 18 it was 12.5 µg/mL (≈ 17.4 µM); with Strep. fec., 50 µg/mL (≈ 69.7 µM); against Klebs. pneu., 6.3 µg/mL (≈ 8.78 µM).
